Data set [1] has as its system HIV (cytopathic effect, ATH8 T cell line). Nature of the data set: Protection of ATH8 T cell line against cytopathic effect of HIV (synergy of combinations). The data set is classed as cell-based, human immunodeficiency virus. To be noted: in vitro. For orientation: Cytopathic effects are the visible damage that an infection or toxin causes in cultured cells.
For data set [2] the following is noted: beagle dog; previously shown; cited from earlier work.
Data set [3] is described as follows: Conversion of 2',3'-dideoxyadenosine in patients. The data set is classed as in vivo, human. The source says: In addition to the 37 patients mentioned above, another 20 patients have been treated for a total of 57.
Data set [4] can be described thus: clinical. To be noted: human, in vivo, iv, 3.2 mg/kg.
For data set [5], the system named is patients with AIDS or AIDS-related complex. Nature of the data set: Clinical improvement (well being, energy, weight, duration of benefit) in treated patients. Type of data set: in vivo, human.
Description: Other patients had fatigue, loss of appetite, fevers, or recent weight loss. Many of these patients could not tolerate therapy with 3'-azido-2',3'-dideoxythymidine (AZT, zidovudine) because of nausea, malaise, or bone marrow toxicity, or were clinically deteriorating while on AZT treatment.
The conditions of data set [6]: human, in vivo.
The test system of data set [7] is human immunodeficiency virus-associated neurological dysfunction. In words: Cognitive function in patients with HIV-associated neurological dysfunction.
The test system of data set [8] is anergic patients. In words: Cutaneous delayed type hypersensitivity reaction (skin test reactivity) of anergic patients. Type of data set: in vivo, human.
Data set [9] deals with HIV. Nature of the data set: Serum HIV p24 antigen and HIV load in treated patients. Type of data set: in vivo.
Data set [10] deals with patients with AIDS or AIDS-related complex. In words: Immune parameters (circulating CD4+, CD8+, total lymphocytes, CD4+:CD8+ ratio) in treated patients. Type of data set: in vivo, human.
For data set [11] the following is noted: human, in vivo. This is another data set of the same source.
Data set [12] has as its system retroviral replication. To be noted: cited from earlier work.
The conditions of data set [13]: human, in vivo. The source holds these as a separate data set.
The test system of data set [14] is HIV-infected patients. In words: Combination therapy of patients with 2',3'-dideoxyinosine and other agents. The data set is classed as in vivo, human. The source says: Examples of such therapies are disclosed in the following examples.
These two drugs are alternated in this manner about week-by-week for about one year. […] These two drugs are alternated about week-by-week for about 6 months.

The conditions of data set [15]: even low doses, after patient has developed pancreatitis; cited from earlier work.
In data set [16] the test system is patients with HIV infection. Conditions: in vivo; cited from earlier work.
For data set [17], the system named is HIV p24 gag production. Conditions: with 2',3'-dideoxyinosine, T-cell line.
The mark [18] stands for this setting: about 1 to 7 mg/kg/day intravenously then about 2 to 14 mg/kg/day orally.
Setting [19] is: patients with HIV infection, intravenous or oral.
[20] abbreviates: with gancyclovir about 500 mg/day iv, 2 weeks.

Entries after “also recorded” stand apart in the source; their conditions may differ. Bounds are passed on as bounds.

The values below come from patent US5026687A (priority 1990, dated 1991).

Broadly, the Cmax is the maximum level reached in the sampled fluid or tissue. As usually defined, the half-life is how long it takes for the measured level to halve.

Take `Nc1ccn([C@H]2CC[C@@H](CO)O2)c(=O)n1` [2',3'-Dideoxycytidine]: the “synergy with 2',3'-dideoxyinosine, protection of ATH8 against cytopathic effect of HIV” value in data set [1] is reported as “synergistic”.

As for `Nc1ncnc2c1ncn2[C@H]1CC[C@@H](CO)O1` [2',3'-dideoxyadenosine], in data set [2], the oral bioavailability result is “can be orally bioavailable”. In addition, the “conversion to 2',3'-dideoxyinosine” value in [3] is recorded as “rapidly converted to 2',3'-dideoxyinosine”.

In data set [4], `OC[C@@H]1CC[C@H](n2cnc3c(O)ncnc32)O1` [2',3'-dideoxyinosine] had a Cmax of around 10 µM and a half-life of around 40 min. In data set [5] (35 evaluable patients), the clinical improvement entry is reported as “clinical improvement”. For the same compound, in [5] (37 patients, increase in energy, decreased sleep requirements, or increased appetite), the “patients reporting an improvement in well being” value is listed as “approximately one half of the 37 patients”. For the same compound, the “patients in whom the beneficial changes were seen” value in [5] (about 2 to 14 mg/kg/day orally with buffers or antacid) is “nearly all of the patients”. In addition, the “persistence of clinical improvements” value in [5] (about 2 to about 14 mg/kg/day orally with antiacids or buffers) was “can persist over at least a year's period of time”. The compound also registered an average weight gain in [5] (first 6 weeks of therapy) of 1.5 kg. For the same compound, in [5] (intravenous or oral route), the “energy (change)” value is reported as “an increase in energy” and the “weight (change)” value is “an increase in weight”. Besides, in [6], the “cumulative dose exceeded without neuropathy appearing” value is on record as above 1.5 gm/kg and the “neuropathy after prompt stopping in warning phase” value is on record as “the neuropathy subsided”. Besides, in data set [7] (6 to 10 weeks of therapy, memory, speed and precision of doing tasks), the “patients with improved cognitive function” value was found to be 4 patients. Further, in [7] (intravenous or oral route), the “cognitive dysfunction associated with HIV infection” value is given as “an improvement in cognitive dysfunction”. The compound further registered a memory quotient in [7] (one patient, about 9.6 mg/kg/day orally in 3 doses, from 111, after 6 weeks) of 121. Moreover, the “anergic patients developing skin test reactivity to at least one test antigen” value in data set [8] (after approximately 6 weeks of therapy) is listed as 7 of these 23 (anergic patients. The “cutaneous delayed type hypersensitivity reaction of anergic patients” value in data set [8] (some patients) is reported as “regained the ability to mount a cutaneous delayed type hypersensitivity reaction to at least one test antigen”. In addition, in [9] (35 evaluable patients), the “replication of HIV” value is on record as “a decrease in the replication in their HIV”. The “patients with no detectable serum HIV p24 antigen” value in [9] (after about one year, about 6.4 to 9.6 mg/kg/day oral) is listed as “two”. Also, in data set [9] (by week 6, about 1 to 7 mg/kg/day iv then about 2 to 14 mg/kg/day orally, patients with detectable p24), the “serum HIV p24 antigen (change)” value is given as “substantial decreases in their serum HIV p24 antigen”. Moreover, the “patients with decline in serum HIV p24 antigen” value in [9] (first 6 weeks, about 6.4 to 9.6 mg/kg/day orally, 3 patients with detectable p24 before therapy) was “All 3 had a decline”. The “reduction of p24 antigen detectable in serum” value in data set [9] (intravenous or oral route) is reported as “a reduction of the amount of p24 antigen”. In addition, in [9] (patients viremic in the face of AZT therapy), the “serum HIV p24 antigen in patients viremic in the face of AZT” value was “a fall in serum HIV p24 antigen”. Also, the “load of HIV in circulating lymphocytes by polymerase chain reaction” value in [9] (while receiving 2',3'-dideoxyinosine) is given as “a decrease in the load of HIV in their circulating lymphocytes”. Also, in [10] (3.2 to 4.8 mg/kg/day iv about 2 weeks, then about 6.4 to 9.6 mg/kg/day orally, about one year), the “patients still having increases in circulating CD4+ lymphocytes” value is listed as 4 of the first 7 patients. In data set [10] (setting [18]), the “number of circulating CD4+ lymphocytes (change)” value is “substantial increases in the number of circulating CD4+ lymphocytes”, the “number of circulating CD8+ lymphocytes (change)” value is listed as “increases in the number of circulating CD8+ lymphocytes” and the “number of circulating total lymphocytes (change)” value is “increases in the number of circulating total lymphocytes”. For the same compound, the “time within which lymphocyte changes were observed” value in data set [10] (about 2 to 14 mg/kg/day orally after intravenous, within about) was at most 2 weeks. Also, the immune parameters improvement entry in [10] (below 2 mg/kg/day orally) was “not as consistently seen”. Besides, in data set [10] (in many cases, about 2 to 14 mg/kg/day orally), the “duration of lymphocyte changes” value is recorded as “at least one”. In addition, in [10] (intravenous or oral route, long periods of time), the immune function result is on record as “improvement in immune function”. The immune parameters improvement entry in [10] (more than 14 mg/kg/day orally, some patients) was “improvements in immune parameters”. Moreover, the “CD4+ lymphocytes after treatment” value in [10] (one patient, baseline about 31, 1.6 mg/kg/day iv about 2 weeks, then oral 3.2 (10 weeks), 4.8 (21 weeks), 9.6 mg/kg/day (31 weeks)) was “about 90 CD4+ lymphocytes/mm^3”. In [10] (patients who had previously received 4 months or less of AZT), the “CD4+ increases by prior AZT therapy” value was “most consistently seen”. In addition, in [10] (setting [19]), the “number of circulating CD4+ lymphocytes (change)” value was “an increase in the number of circulating CD4+ lymphocytes; also recorded: increases in their circulating CD4+ cells”, the “number of circulating CD8+ lymphocytes (change)” value is on record as “an increase in the number of CD8+ lymphocytes; also recorded: increases in the number of CD8+ lymphocytes” and the “number of circulating total lymphocytes (change)” value was “an increase in the number of circulating total lymphocytes; also recorded: increases in the number of total lymphocytes”. Besides, the “CD8+ lymphocytes after treatment” value in [10] (same first patient, baseline 189) was “about 302 CD8+ lymphocytes/mm^3”. Moreover, the “total lymphocytes after treatment” value in data set [10] (same first patient, baseline 405) is “about 816 total lymphocytes/mm^3”. In data set [10] (second patient, baseline 844, about one year), the “CD8+ lymphocytes after treatment” value is reported as “about 1256 CD8+ lymphocytes/mm^3”. Also, the “total lymphocytes after treatment” value in [10] (second patient, baseline 1270, about one year) is reported as “about 1794 total lymphocytes/mm^3”. For the same compound, in [10] (second patient, baseline about 219, 4.8 mg/kg/day iv about 2 weeks then 9.6 mg/kg/day oral, about one year), the “CD4+ lymphocytes after treatment” value was “about 359 CD4+ lymphocytes/mm^3”. In addition, in data set [11], the pancreatitis entry is given as “can definitely cause pancreatitis” and the “time for amylase to return to about normal” value is “about one”. In addition, the “evidence of pancreatitis after restart” value in [11] (6.4 mg/kg/day) is on record as “no evidence of pancreatitis”. Further, in data set [11] (po, 6.4 mg/kg/day), the “recurrence of pancreatitis after restart” value is recorded as “did not recur” and the “serum amylase after restart” value was found to be 80 U/liter. Also, the “clinical symptoms of pancreatitis” value in [11] (po, 9.6 mg/kg/day) is “no clinical symptoms of pancreatitis”. In [1] (with dextran sulfate), the “synergy with dextran sulfate, protection of ATH8 against cytopathic effect of HIV” value is recorded as “synergistic”. In data set [12], the “suppression of retroviral replication” value is “known to suppress retroviral replication”. The hepatitis after discontinuation result in [13] is listed as “the hepatitis resolved”. Besides, in data set [13] (po, 6.4 mg/kg/day), the “recurrence of hepatitis after restart” value is “did not recur”. Also, in [14] (AZT 300 mg/day with ddI 3.2 mg/kg/day, or AZT 600 mg/day alternating weekly with ddI 6.4 mg/kg/day, about one year), the “outcome of combination with AZT” value is on record as “Beneficial effects are seen”. Besides, the “outcome of combination with ddC” value in [14] (ddC 0.015 mg/kg/day with ddI 3.2 mg/kg/day, or ddC 0.03 mg/day alternating weekly with ddI 6.4 mg/kg/day, about 6 months) is “Beneficial effects are seen”. In data set [14] (ddI 3.2 mg/kg/day orally, ribavirin 100 to 2400 mg/day orally, about 6 months), the “outcome of combination with ribavirin” value is “Beneficial effects are seen”. In data set [14] (ddI 4.8 mg/kg/day iv 2 weeks then 9.6 mg/kg/day orally 56 weeks, 300 mg pentamidine isothionate inhaled monthly), the “clinical course with pentamidine prophylaxis” value is recorded as “clinically did well”. The “outcome of combination with dextran sulfate” value in [14] (ddI 6.4 mg/kg/day orally, dextran sulfate 2700 mg/day iv, about 6 months) is “Beneficial effects are seen”. The “outcome of combination with rCD4” value in data set [14] (ddI 6.4 mg/kg/day orally, rCD4 300 μg/kg/day iv, 1 year) is listed as “Beneficial effects are seen”. Moreover, in data set [14] (ddI 1 to 14 mg/kg/day orally with 0.5 to 10 million units interferon alpha daily, about 3 months, Kaposi's sarcoma), the “outcome of combination with interferon alpha” value is given as “Beneficial effects are seen”. Besides, the “outcome of combination with IL-2” value in data set [14] (ddI 1 to 14 mg/kg/day orally with 25,000 to 1 million U/day IL-2, about 3 months) is given as “Beneficial effects are seen”. Besides, the “development of Pneumocystis carinii pneumonia” value in data set [14] (with 300 mg pentamidine isothionate inhaled monthly, about 56 weeks) is on record as “did not develop Pneumocystis carinii pneumonia”. Besides, the “recurrence of cytomegalovirus retinitis” value in data set [14] (with acyclovir 4800 mg/day, 4 weeks) is on record as “the retinitis has not recurred”. In data set [14] (setting [20]), the increase in weight result is “about 2.2 kg” and the “recurrence of cytomegalovirus retinitis” value is reported as “has not had a recurrence of the retinitis”. Further, the “patient's report” value in data set [14] (with gancyclovir about 500 mg/day iv, ddI 6.4 mg/kg/day orally, 2 weeks) is reported as “reports feeling better”. Moreover, the “oral absorption and pharmacokinetics on chronic administration” value (chronic oral administration in a given person) is recorded as “remain fairly constant”. For the same compound, the “oral absorption, non-fasting” value (oral, patient not in a fasting state) was “effectively absorbed”.

As for `Sc1ncnc2nc[nH]c12` [6-mercaptopurine], the pancreatitis on re-administration entry in [15] is on record as “causes pancreatitis that returns acutely”.

`Cc1cn([C@H]2C[C@H](N=[N+]=[N-])[C@@H](CO)O2)c(=O)[nH]c1=O` [AZT, 3'-azido-2',3'-dideoxythymidine]: in [1], the “synergy with 2',3'-dideoxyinosine, protection of ATH8 against cytopathic effect of HIV” value is “synergistic”. For the same compound, in [16], the hepatic dysfunction result is recorded as “can cause hepatic dysfunction”; the “pancreatitis or peripheral neuropathy” value was “not known to cause pancreatitis or a peripheral neuropathy”; the “toxicities and side effects” value is “anemia, other bone marrow suppression, and certain other toxicities such as myositis (muscle destruction or inflammation), headaches, nausea, vomiting, malaise, or seizures”.

As to `NC(=O)c1ncn([C@@H]2O[C@H](CO)[C@@H](O)[C@H]2O)n1` [Ribavirin], the “effect on the anti-HIV effect of 2',3'-dideoxyinosine (HIV p24 gag production)” value in [17] is given as “induce enhancement of the anti-HIV effect”.
